According to DBAASP:
≈ marks a conversion by molar mass, not a printed value.

Assays:
Assay in all cases: ≥ marks a high value that may be exact or a test limit, other limits are often not marked, values filed in µg/mL are converted to µM
[1] = tested on: Candida albicans ATCC 10231
Bacillus megaterium Bm11 = tested on: Bacillus megaterium Bm11
Staphylococcus capitis 1 = tested on: Staphylococcus capitis 1
[2] = tested on: Staphylococcus aureus Cowan 1
[3] = tested on: Escherichia coli ATCC 25922
[4] = tested on: Yersinia pseudotuberculosis YPIII
Pasteurella multocida = tested on: Pasteurella multocida
Listeria innocua = tested on: Listeria innocua
Micrococcus luteus = tested on: Micrococcus luteus
Staphylococcus aureus = tested on: Staphylococcus aureus
[5] = tested on: Staphylococcus epidermidis
Streptococcus uberis = tested on: Streptococcus uberis
Leuconostoc lactis = tested on: Leuconostoc lactis
Bacillus cereus = tested on: Bacillus cereus
Escherichia coli = tested on: Escherichia coli
[6] = tested on: Bacillus megaterium KCTC 1096
[7] = tested on: Candida albicans KCTC 7121
[8] = tested on: Staphylococcus aureus KCTC 1621
[9] = tested on: Escherichia coli KCTC 1682
Proteus vulgaris = tested on: Proteus vulgaris
[10] = tested on: Fusarium oxysporum KCTC 6084
[11] = tested on: Pseudomonas aeruginosa KCTC 1637
[12] = tested on: Aspergillus flavus KCTC 7375
[13] = tested on: Trichosporon beigelii KCTC 7251
[14] = tested on: Bacillus subtilis KCTC 1918
[15] = tested on: Aeromonas hydrophila BCRC 13018
Vibrio vulnificus 204 = tested on: Vibrio vulnificus 204
[16] = tested on: Streptococcus agalactiae 819
Vibrio alginolyticus = tested on: Vibrio alginolyticus
[17] = tested on: Enterococcus faecalis BCRC 10066
[18] = tested on: Streptococcus agalactiae BCRC 10787
[19] = tested on: Pseudomonas aeruginosa ATCC 19660
Salmonella typhimurium = tested on: Salmonella typhimurium
Proteus mirabilis = tested on: Proteus mirabilis
Klebsiella pneumoniae = tested on: Klebsiella pneumoniae
Candida albicans = tested on: Candida albicans
Pseudomonas aeruginosa = tested on: Pseudomonas aeruginosa
Serratia marcescens = tested on: Serratia marcescens
Shigella dysenteriae = tested on: Shigella dysenteriae

Work on `CC[C@H](C)[C@H](NC(=O)CNC(=O)[C@H](CO)NC(=O)[C@H](CC(C)C)NC(=O)[C@@H](NC(=O)[C@H](CCCN=C(N)N)NC(=O)CNC(=O)[C@@H](NC(=O)[C@H](C)NC(=O)[C@@H]1CCCN1C(=O)[C@H](CC(C)C)NC(=O)[C@@H](N)Cc1ccccc1)[C@@H](C)CC)C(C)C)C(=O)N[C@@H](CC(C)C)C(N)=O` [FLPAIGRVLSGIL] yielded an MIC [1] of 10 µM (≈ 13.5 µg/mL), an MIC (Bacillus megaterium Bm11) of 5 µM (≈ 6.77 µg/mL) and an MIC (Staphylococcus capitis 1) of 20 µM (≈ 27.1 µg/mL). The MIC [2] was no less than 40 µM, the MIC [3] was greater than 40 µM and the MIC [4] was no less than 40 µM.

Compound `CC[C@H](C)[C@H](NC(=O)[C@@H](NC(=O)[C@H](C)NC(=O)[C@H](C)NC(=O)[C@@H](NC(=O)[C@H](CCCCN)NC(=O)[C@H](CCCCN)NC(=O)[C@@H](NC(=O)[C@@H](NC(=O)[C@H](CC(=O)O)NC(=O)[C@H](Cc1ccccc1)NC(=O)[C@H](CC(C)C)NC(=O)CN)C(C)C)[C@@H](C)CC)C(C)C)C(C)C)C(=O)NCC(=O)NCC(=O)N[C@@H](CC(C)C)C(N)=O` [GLFDVIKKVAAVIGGL] has an MIC (Pasteurella multocida) of no less than 62.5 µM, an MIC (Listeria innocua) of no less than 62.5 µM and an MIC (Micrococcus luteus) of 7.5 µM (≈ 12 µg/mL). For the same compound, the MIC (Staphylococcus aureus) was 15.6 µM (≈ 25 µg/mL), the MIC [5] was 15.6 µM (≈ 25 µg/mL) and the MIC (Streptococcus uberis) was 15.6 µM (≈ 25 µg/mL). The MIC (Leuconostoc lactis) was 3.75 µM (≈ 6 µg/mL), the MIC (Bacillus cereus) was 31.3 µM (≈ 50 µg/mL) and the MIC (Escherichia coli) was greater than 62.5 µM.

For `CC[C@H](C)[C@H](NC(=O)CNC(=O)[C@H](CO)NC(=O)[C@H](CC(C)C)NC(=O)[C@H](C)NC(=O)[C@H](CCCN=C(N)N)NC(=O)CNC(=O)[C@@H](NC(=O)[C@H](CC(C)C)NC(=O)[C@@H]1CCCN1C(=O)[C@H](CC(C)C)NC(=O)[C@@H](N)Cc1ccccc1)[C@@H](C)CC)C(=O)N[C@@H](CC(C)C)C(N)=O` [FLPLIGRALSGIL], the MIC [1] was 10 µM (≈ 13.7 µg/mL), the MIC (Bacillus megaterium Bm11) was 5 µM (≈ 6.84 µg/mL) and the MIC (Staphylococcus capitis 1) was 20 µM (≈ 27.4 µg/mL). It also gave an MIC [2] of 20 µM (≈ 27.4 µg/mL), an MIC [3] greater than 40 µM and an MIC [4] of no less than 40 µM.

`CC[C@H](C)[C@H](NC(=O)[C@H](CCCCN)NC(=O)[C@H](CCCCN)NC(=O)[C@H](Cc1ccccc1)NC(=O)[C@H](Cc1c[nH]c2ccccc12)NC(=O)[C@@H](N)CCCCN)C(=O)N1CCC[C@H]1C(=O)N[C@@H](CCCCN)C(=O)N[C@@H](Cc1ccccc1)C(=O)N[C@@H](CC(C)C)C(=O)N[C@@H](Cc1cnc[nH]1)C(=O)N[C@@H](CC(C)C)C(=O)N[C@@H](C)C(=O)N[C@@H](CCCCN)C(=O)N[C@@H](CCCCN)C(=O)N[C@@H](Cc1ccccc1)C(N)=O` [KWFKKIPKFLHLAKKF] showed an MIC [6] of 1.56 µM (≈ 3.21 µg/mL), an MIC [7] of no less than 50 µM and an MIC [8] of 3.12 µM (≈ 6.43 µg/mL). It also gave an MIC [9] of 12.5 µM (≈ 25.7 µg/mL), an MIC (Proteus vulgaris) of 3.12 µM (≈ 6.43 µg/mL) and an MIC [10] of no less than 100 µM. It also gave an MIC [11] of 1.56 µM (≈ 3.21 µg/mL), an MIC [12] of no less than 100 µM and an MIC [13] of no less than 50 µM. The MIC [14] was 0.78 µM (≈ 1.61 µg/mL).

`CC[C@H](C)[C@H](NC(=O)[C@H](C)NC(=O)[C@H](CC(=O)O)NC(=O)[C@H](Cc1c[nH]c2ccccc12)NC(=O)[C@@H](NC(=O)[C@H](CS)NC(=O)[C@H](CCC(=O)O)NC(=O)CN)[C@@H](C)CC)C(=O)N[C@@H](Cc1ccccc1)C(=O)N[C@@H](Cc1cnc[nH]1)C(=O)NCC(=O)N[C@@H](C)C(=O)N[C@@H](CCCCN)C(=O)N[C@@H](Cc1cnc[nH]1)C(=O)N[C@@H](Cc1ccccc1)C(=O)N[C@@H](CC(C)C)C(=O)N[C@@H](Cc1cnc[nH]1)C(=O)N[C@@H](CCCN=C(N)N)C(=O)N[C@@H](CC(C)C)C(=O)N[C@H](C(=O)N[C@@H](CC(N)=O)C(=O)N1CCC[C@H]1C(N)=O)C(C)C` [GECIWDAIFHGAKHFLHRLVNP] was tested, and the MIC [15] was 7.62 µM (≈ 19.5 µg/mL), the MIC (Vibrio vulnificus 204) was 7.62 µM (≈ 19.5 µg/mL) and the MIC [16] was 7.62 µM (≈ 19.5 µg/mL). It also gave an MIC (Vibrio alginolyticus) of 7.62 µM (≈ 19.5 µg/mL), an MIC [17] of 7.62 µM (≈ 19.5 µg/mL) and an MIC [18] of 7.62 µM (≈ 19.5 µg/mL). It also gave an MIC [19] of 7.62 µM (≈ 19.5 µg/mL).

`CC(C)C[C@@H]1NC(=O)CNC(=O)[C@H](CO)NC(=O)[C@H](C(C)C)NC(=O)CNC(=O)[C@@H](NC(=O)[C@H](CC(C)C)NC(=O)[C@@H](NC(=O)[C@H](CCCCN)NC(=O)[C@H](CCCCN)NC(=O)CNC(=O)[C@@H](NC(=O)CNC(=O)[C@H](CC(C)C)NC(=O)[C@@H](NC(=O)[C@H](CCCCN)NC(=O)[C@H](CO)NC(=O)[C@H](CC(C)C)NC(=O)[C@H](CC(C)C)NC(=O)CN)C(C)C)C(C)C)C(C)C)CSSC[C@@H](C(=O)O)NC1=O` [GLLSKVLGVGKKVLCGVSGLC] gave an MIC (Salmonella typhimurium) of 11.1 µM (≈ 22.5 µg/mL), an MIC (Micrococcus luteus) of 1.23 µM (≈ 2.5 µg/mL) and an MIC (Staphylococcus aureus) of 15 µM (≈ 30.4 µg/mL). The MIC (Proteus mirabilis) was no less than 98.5 µM, the MIC (Klebsiella pneumoniae) was 4.92 µM (≈ 9.99 µg/mL) and the MIC (Candida albicans) was 73.9 µM (≈ 150 µg/mL). For the same compound, the MIC (Pseudomonas aeruginosa) was 49.2 µM (≈ 99.9 µg/mL), the MIC (Escherichia coli) was 5 µM (≈ 10.1 µg/mL) and the MIC (Serratia marcescens) was no less than 98.5 µM. It also gave an MIC (Shigella dysenteriae) of 4.92 µM (≈ 9.99 µg/mL).

Work on `CC[C@H](C)[C@H](NC(=O)[C@H](CCCCN)NC(=O)[C@H](CCCCN)NC(=O)[C@H](Cc1ccccc1)NC(=O)[C@H](CC(C)C)NC(=O)[C@H](CCCCN)NC(=O)[C@@H](N)Cc1c[nH]c2ccccc12)C(=O)N1CCC[C@H]1C(=O)N[C@@H](CCCCN)C(=O)N[C@@H](Cc1ccccc1)C(=O)N[C@@H](CC(C)C)C(=O)N[C@@H](Cc1cnc[nH]1)C(=O)N[C@@H](CC(C)C)C(=O)N[C@@H](C)C(=O)N[C@@H](CCCCN)C(=O)N[C@@H](CCCCN)C(=O)N[C@@H](Cc1ccccc1)C(N)=O` [WKLFKKIPKFLHLAKKF] yielded an MIC [6] of 1.56 µM (≈ 3.39 µg/mL), an MIC [7] of no less than 50 µM and an MIC [8] of 3.12 µM (≈ 6.79 µg/mL). For the same compound, the MIC [9] was 6.25 µM (≈ 13.6 µg/mL), the MIC (Proteus vulgaris) was 1.56 µM (≈ 3.39 µg/mL) and the MIC [10] was no less than 50 µM. The MIC [11] was 1.56 µM (≈ 3.39 µg/mL), the MIC [12] was no less than 50 µM and the MIC [13] was no less than 50 µM. The MIC [14] was 0.78 µM (≈ 1.69 µg/mL).

Work on `CC[C@H](C)[C@H](NC(=O)CNC(=O)[C@H](CCC(=O)O)NC(=O)[C@@H](NC(=O)[C@@H](NC(=O)CNC(=O)[C@H](CO)NC(=O)[C@H](C)NC(=O)[C@H](CC(C)C)NC(=O)[C@H](CC(=O)O)NC(=O)CNC(=O)[C@H](C)NC(=O)[C@H](C)NC(=O)[C@H](CCC(N)=O)NC(=O)[C@H](CCCCN)NC(=O)[C@@H](NC(=O)[C@H](CCCCN)NC(=O)[C@H](CCC(N)=O)NC(=O)[C@H](Cc1c[nH]c2ccccc12)NC(=O)[C@H](CC(C)C)NC(=O)CN)[C@@H](C)CC)[C@@H](C)CC)C(C)C)C(=O)N[C@@H](CCCCN)C(=O)N[C@@H](CO)C(N)=O` [GLWQKIKQAAGDLASGIVEGIKS] yielded an MIC (Pasteurella multocida) of no less than 42.2 µM, an MIC (Listeria innocua) of no less than 42.2 µM and an MIC (Micrococcus luteus) of 10.5 µM (≈ 25 µg/mL). The MIC (Staphylococcus aureus) was greater than 42.2 µM, the MIC [5] was no less than 42.2 µM and the MIC (Streptococcus uberis) was no less than 42.2 µM. The MIC (Leuconostoc lactis) was no less than 42.2 µM, the MIC (Bacillus cereus) was no less than 42.2 µM and the MIC (Escherichia coli) was 21.1 µM (≈ 50 µg/mL).
